Results reported in patent US9790469B2, “Established human brown adipocyte line and method for differentiation from an hMADS cell line” (CENTRE NATIONAL DE LA RECHERCHE SCIENTIFIQUE (CNRS), priority 2008, dated 2017).

Legend:
hMADS-2 cells [1] = assay: Stimulation of UCP1 expression by β-adrenergic agonists in hMADS-2 cells differentiated into brown adipocytes; type: cell-based, human; conditions: stimulation for 6 h at 10-100 nM; cells with 100 nM rosiglitazone days 3 to 16
Experimental: A) adipocytic differentiation of hMADS-2 cells was carried out in the presence of 100 nM rosiglitazone on the days indicated and mRNA levels were determined on day 17 by quantitative RT-PCR. (B, C) differentiation was obtained in the presence of 100 nM rosiglitazone between days 3 and 16, in the absence or the presence during the 6 last hours of β-adrenergic agonists at the indicated concentrations. The results represent the mean±SD of 3 (A) and 2 (B) independent experiments carried out with various series of cells; they are expressed by taking as 100% the values obtained either during treatment between days 3 and 9 (A) or in the absence of β-adrenergic agonists (B, C).
(§1) RNA purification and analysis: RNA extraction, the use of reverse transcriptase and determination of mRNA levels by real-time quantitative RT-PCR have been described (Zaragosi, L. E et al., Stem Cells, 2006. 24(11): p. 2412-9; Elabd, C, et al., Biochem Biophys Res Commun, 2007. 361(2): p. 342-8; Bezy, O., et al., J Biol Chem, 2005. 280(12): p. 11432-8). Expression of the genes of interest was normalized compared with the one of the TBP gene and was quantified using the ΔCt comparative method. […]
Immunoblot analysis: Total cellular lysates are analyzed by immunoblot as previously described (Bezy, O., et al., J Biol Chem, 2005. 280(12): p. 11432-8). […]

hMADS-2 cells [2] = assay: Oxygen consumption and respiratory uncoupling of hMADS-2 cells (respirometer); type: cell-based, human
Experimental: On day 20, oxygen consumption (A), decoupling of oxidative phosphorylation (B) and stimulation of oxygen consumption by isoprenaline (C) were measured according to the protocol described in “Materials and Methods”. […] Determination of oxygen consumption: Oxygen consumption was measured using two-chamber injection respirometer equipped with a Peltier thermostat, Clark electrodes and integrated magnetic stirrers (Oroboros, Innsbruck, Austria). Measurements were made at 37° C. with constant stirring in a volume of 2 ml of DMEM/F12 medium (1:1, v/v) containing 10% fetal calf serum. Before each measurement, the medium present in the chambers was equilibrated with air for 30 min, and then the freshly-trypsinized cells were transferred to this medium. […] The respiratory chain was blocked with 1 μg/ml antimycin A. Oxygen consumption was calculated using the DataGraph software (Oroboros Software). Basal respiratory activity corresponds to oxygen consumption sensitive to antimycin A. Respiratory activity was stimulated in the presence of 1 μM isoprenaline added extemporaneously in the injection chamber, with measurements made as described above.

hMADS-2 cells [3] = assay: Adipocytic differentiation of hMADS-2 cells (Oil Red O lipid staining, GPDH activity, PPARγ mRNA); type: cell-based, human
From the text: (§2) Expression of the genes of interest was normalized compared with the one of the TBP gene and was quantified using the ΔCt comparative method. The sequences of oligonucleotide primers, obtained using the Primer Express Software (Perkin Elmer Life Sciences), are described in Table 1 below.

[4] = test system: hMADS-2 cells differentiated into white adipocytes; assay: Induction of a brown phenotype in hMADS-2 cells previously differentiated into white adipocytes; type: cell-based, human; conditions: for UCP1 gene expression: replacement of rosiglitazone, 10 μM, results not shown; for expression of the UCP1 protein: exposure between days 14 and 16 with specific PPAR ligands
Experimental: Initially hMADS-2 cells were differentiated into white adipocytes with 100 nM rosiglitazone present between days 3 and 9. Once eliminated, the ligand is added or not added on day 14 and during the following days at the indicated […] concentrations.
The results are expressed as stimulation factor by taking as 1 the values obtained on day 16 after exposure to 100 nM rosiglitazone between days 3 and 9; the values represent the mean±SD of 2 independent experiments carried out with various series of cells.
as §2
The primary antibodies obtained from the rabbit, anti-human UCP1 and anti-TBP, are products from Santa Cruz Biotechnology (Santa Cruz, Calif., USA) and the secondary antibodies (conjugated with horseradish peroxidase) are products from Promega (Charbonnières, France). The “Enhanced Chemiluminescence” system (Millipore, Saint-Quentin-Yvelines, France) was used for detection.

[5] = test system: human brown adipocytes immortalized by transgenesis and expressing β3-adrenergic receptors; conditions: Zilberfarb 1997; Jockers 1998; cited from earlier work
hMADS-2 cells [6] = assay: Expression of brown adipocyte markers and related genes in hMADS-2 cells (quantitative RT-PCR, immunoblot); type: cell-based, human; conditions: brown phenotype; ratio 1 for the white phenotype (days 3 to 9)
Experimental: Differentiation of hMADS-2 cells was carried out as described in FIG. 1. On day 16, levels of UCP1 (A), UCP2 (C), CIDEA (D) and CPT1B (E) mRNA were determined by quantitative RT-PCR. The results represent the mean±SD of 3 independent experiments carried out with various series of cells; they are expressed by taking as 100% the value obtained in the presence of 500 nM rosiglitazone. Levels of the UCP1 protein (B) were determined by immunoblotting on 2 different series of cells using TBP as endogenous internal standard.
Adipocytic differentiation of hMADS-2 cells was carried out in the presence of either rosiglitazone at 100 nM (A) or at the indicated concentrations (B). Levels of PRDM16, PGC-1α, PGC-1β and PPARα mRNA were determined by quantitative RT-PCR on day 16 (A) and day 17 (B). […]
Adipocytic differentiation of hMADS-2 cells was carried out in the presence of 100 nM rosiglitazone. On day 16, Bcl-2 and Bax mRNA levels were determined by quantitative RT-PCR. […]
as §1, with “11432-8).” for “11432-8). Expression of the genes of interest was normalized compared with the one of the TBP gene and was quantified using the ΔCt comparative method.”

[7] = 100 nM, days 3 to 20 (brown) versus days 3 to 9 (white)

Molecule: CC(C)NCC(O)c1ccc(O)c(O)c1 (stereo not shown) [isoproterenol]
- expression of UCP1 mRNA and UCP1 protein (hMADS-2 cells [1]): significantly increased
- stimulation of oxygen consumption (hMADS-2 cells [2]; 1 μM, cells with brown phenotype): important stimulation

Molecule: O=C(Nc1ccccc1)c1cc([N+](=O)[O-])ccc1Cl [GW 9662]
- differentiation of hMADS cells into adipocytes (hMADS-2 cells [3]; PPARγ antagonist added to the differentiation medium): prevents
- expression of the UCP-1 gene ([4]; PPARγ antagonist added, cells differentiated beforehand into white adipocytes): does not allow expression of the UCP-1 gene

Molecule: C[C@H](Cc1ccc2c(c1)OC(C(=O)[O-])(C(=O)[O-])O2)NC[C@H](O)c1cccc(Cl)c1.[Na+].[Na+] [CL316243]
- expression of UCP1 mRNA and UCP1 protein (hMADS-2 cells [1]): significantly increased

Molecule: CC(C)(C)NCC(O)COc1cccc2[nH]c(=O)[nH]c12 (stereo not shown) [CGP12177A]
- lipolytic activity [5]: only weak lipolytic activity

Molecule: CCCCC/C=C\C/C=C\C/C=C\C/C=C\CCCC(=O)O [arachidonic acid]
- UCP1 gene expression [4]: no effect

Molecule: CC/C=C\C/C=C\C/C=C\C/C=C\C/C=C\CCCC(=O)O [eicosapentaenoic acid]
- UCP1 gene expression [4]: no effect

Molecule: CN(CCOc1ccc(CC2SC(=O)NC2=O)cc1)c1ccccn1 (stereo not shown) [rosiglitazone]
- ratio of Bcl-2 to Bax (hMADS-2 cells [6]): 3.7
- increase factor of total respiratory activity (hMADS-2 cells [2]; [7]): 3
- increase factor of uncoupled respiratory activity (hMADS-2 cells [2]; [7]): 2.5

Molecule: Cc1cccc(Nc2cc(Cl)nc(SCC(=O)O)n2)c1C [Wy14643]
- expression of the UCP1 protein [4]: not inducing the expression of the UCP1 protein

Molecule: CCCc1c(OCCCOc2ccc(OCC(=O)O)cc2)ccc(C(C)=O)c1O [L165041]
- expression of the UCP1 protein [4]: not inducing the expression of the UCP1 protein

Molecule: CC/C=C\C/C=C\C/C=C\C/C=C\C/C=C\C/C=C\CCC(=O)O [docosahexaenoic acid]
- UCP1 gene expression [4]: no effect

B1: BMP7: Bone Morphogentic Protein 7 (BMP7) (protein, UniProt P18075 293-431, looked up)
Bone morphogenetic protein 7: STGSKQRSQNRSKTPKNQEALRMANVAENSSSDQRQACKKHELYVSFRDLGWQDWIIAPEGYAAYYCEGECAFPLNSYMNATNHAIVQTLVHFINPETVPKPCCAPTQLNAISVLYFDDSSNVILKKYRNMVVRACGCH
- differentiation of hMADS cells into adipocytes (hMADS-2 cells [3]; BMP7 alone, in the absence of rosiglitazone): does not enable their differentiation into adipocytes
- UCP-1 protein expression ([4]; cells differentiated beforehand into white adipocytes): weak increase
